# Values of other authors in patent US20260356885A1, “PROCESS FOR MANUFACTURING AN ANTIBIOTIC MACROCYCLIC PEPTIDE” (Hoffmann-La Roche Inc., priority 2022, published 2026).
# Tested on: Acinetobacter baumannii
# Conditions: statement in words, as discussed in WO2019206853; no test or value given
structure (smiles),measurement,value
"CN1C(=O)[C@H](CCCCN)NC(=O)[C@H](CCCN)NCc2cccnc2Sc2cccc(-c3ccc(C(=O)O)cc3)c2CNC(=O)[C@@H]1Cc1c[nH]c2ccccc12 [compound of formula (I), 4-[(11S,14S,17S)-14-(4-Aminobutyl)-11-(3-aminopropyl)-17-(1H-indol-3-ylmethyl)-16-methyl-12,15,18-trioxo-2-thia-4, 10, 13, 16, 19-pentazatricyclo[19.4.0.03,8]pentacosa-1 (25),3 (8), 4,6,21,23-hexaen-22-yl]benzoic acid]","antibiotic action, selective against Acinetobacter baumannii",potent antibiotic with selective action against Acinetobacter baumannii
